Drawing on PubChem BioAssay (NCI), this text covers TGI and GI50 for 23 compounds.

Assay in all cases: inhibition of tumour cell growth, NCI panel, 48 h
In assay [1] the test system is COLO 205 colon.
Assay [2] relates to RXF 393 renal.
Assay [3] relates to CAKI-1 renal.
The test system of assay [4] is SK-MEL-28 melanoma.
Assay [5] relates to U251 CNS.
In assay [6] the test system is EKVX NSCLC.
In assay [7] the test system is HOP-92 NSCLC.
Assay [8] relates to DLD-1 colon.
The subject of assay [9] is NCI-H23 lung.
The test system of assay [10] is SNB-78 CNS.

“And” between values parts separate entries of the source, which are not always exact repeats. Equal entries are not always repeated.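 A five-concentration, 48-hour dose response in 96-well plates underlies each endpoint, interpolated linearly between surrounding concentrations. The concentration for 50% growth inhibition is given as GI50. TGI is the concentration that stops growth completely.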

For `Nc1ccccc1C(=O)CCC1C(=O)NC(=S)NC1=O`, the TGI in assay [1], in assay [2], in assay [3], in assay [4], in assay [5] and in [6] was above 100 µM throughout. The TGI in [7], in assay [8] and in [9] was above 100 µM throughout.

As for `Cc1cc(=O)n(-c2cc3cccccc-3n2)[nH]1`, the TGI in [1] is 43.6 µM; in [2], 11.2 µM; in [4], above 100 µM; in assay [5] it was 4.96 µM; in assay [6], 96.7 µM; in assay [8] it was above 100 µM. In assay [9], the TGI worked out at 47.4 µM.

Consider `CC(=O)[C@H]1CCC2[C@@H]3CC=C4C[C@@H]([O-])CC[C@]4(C)C3CC[C@@]21C.CC(=O)[C@H]1CCC2[C@@H]3CC=C4C[C@@H]([O-])CC[C@]4(C)C3CC[C@@]21C.CC(=O)[CH-]C(=O)c1ccccc1.CC(=O)[CH-]C(=O)c1ccccc1.Cl.[Ti+4]` (some centres undefined), for which the GI50 was 39.3 µM in assay [1]; 27.1 µM in assay [2]; 19 µM in assay [3]; 27.4 µM in [8]; 13.4 µM in assay [9]. The TGI in assay [1] is above 100 µM; in assay [2], above 100 µM; in [3], 97.3 µM; in assay [8], above 100 µM; in assay [9] it was 29.5 µM.

`CN(/N=C\c1ccnc2ccccc12)c1ccc([N+](=O)[O-])cc1`: the TGI in [1], in assay [3], in [4], in assay [10], in assay [5] and in [6] was above 100 µM each time. Also, the TGI in [7] and in assay [9] was above 100 µM each time.

For the compound `CC(=O)[CH-]C(=O)c1ccccc1.CC(=O)[CH-]C(=O)c1ccccc1.CC(=O)[CH-]C(=O)c1ccccc1.[Nd+3].[OH3+]`, the GI50 is 47.3 µM in [1]; 61 µM in assay [3]; 66.9 µM in assay [4]; 37 µM in assay [5]; 60.9 µM in [6]; 29.5 µM in assay [7]. Besides, the GI50 in assay [8] is 25 µM; in assay [9], 37.8 µM. Also, the TGI was above 100 µM in assay [1]; above 100 µM in [3]; above 100 µM in [4]; above 100 µM in assay [5]; above 100 µM in assay [6]; 77.4 µM in assay [7]. Further, the TGI in assay [8] and in [9] was above 100 µM in each case.

On to `COC(=O)[C@@H]1Cc2c([nH]c3ccccc23)[C@H](c2ccccc2)N1`, for which the TGI in assay [1] is 38.6 µM; in [3] it was above 100 µM; in assay [4], above 100 µM; in assay [5], above 100 µM; in assay [6], above 100 µM; in assay [7], above 100 µM. Besides, the TGI in assay [8] and in assay [9] was above 100 µM each time.

Turning to `Clc1cccc(C2N3CCCCC3[C@@H]3c4[nH]c5ccccc5c4CCN23)c1` (some centres undefined), the TGI in [2] was 47.5 µM; in [3] it was above 100 µM; in assay [4] it was 79.9 µM; in assay [5], 73.5 µM; in assay [6], above 100 µM; in assay [7] it was above 100 µM. For the same compound, the values for the TGI in assay [8] and in assay [9] were above 100 µM and 45 µM, respectively.

`CNS(=O)(=O)NNS(=O)(=O)c1ccc(OC)cc1`: the TGI in [1], in assay [2], in assay [3], in assay [5], in [6] and in [8] was above 100 µM each time. The compound further yielded a TGI in assay [9] above 100 µM.

For the compound `C=CCC(N[C@@H](CO)c1ccccc1)c1cn(C(=O)OCC)c2ccccc12` (some centres undefined), the GI50 in assay [1] is 20.1 µM; in assay [2], 22.8 µM; in assay [3], 13.6 µM; in assay [4] it was 34.1 µM; in [5] it was 17.9 µM; in assay [6], 35.3 µM. The results for the GI50 in assay [7] and in [9] were 16.5 µM and 20.5 µM, respectively. The TGI in assay [1] is 44.1 µM; in assay [2], 84.2 µM; in [3] it was 53.5 µM; in [4] it was above 100 µM; in [5], 32.4 µM; in assay [6], above 100 µM. For the same compound, the TGI was found to be 39.8 µM in assay [7] and 49.6 µM in assay [9].

For `COc1ccc([C@@]23Oc4cc(OC)cc(OC)c4[C@]2(O)[C@H](O)[C@H](C(N)=O)[C@H]3c2ccccc2)cc1`, the TGI is 0.0286 µM and 0.0116 µM in assay [1]; 0.0472 µM and 0.0136 µM in assay [2]; 0.0838 µM in assay [3]; 0.612 µM and 0.194 µM in [5]; 0.108 µM and 0.158 µM in assay [6]; 0.317 µM and 0.0541 µM in [7]. Moreover, in assay [9], the TGI was 0.0769 µM and 0.0157 µM. Also, the GI50 in assay [2] is below 0.0115 µM; in assay [4], below 0.0116 µM; in assay [7], below 0.0153 µM.

Consider `O=[N+]([O-])c1cc([N+](=O)[O-])c(Nn2c3ccccc3c3ccccc32)c([N+](=O)[O-])c1`, for which the GI50 in assay [1] is 0.195 µM; in assay [2], 0.272 µM; in assay [3] it was 0.238 µM; in [4], 0.483 µM; in [5], 0.358 µM; in [6], 0.328 µM. For the same compound, in assay [9], the GI50 was 0.313 µM. Further, the TGI was 1.24 µM in [2]; 0.703 µM in [3]; 51.2 µM and 14.9 µM in assay [4]; above 100 µM in assay [5]; 7.64 µM in [6]; 2.81 µM in assay [7]. Also, the TGI in [9] was 4.55 µM and 3.96 µM.

On to `O=C(c1ccc(Cl)cc1)C(O)c1ccc(Cl)cc1` (centres undefined), for which the TGI in [1], in assay [2], in assay [3], in assay [4], in assay [5] and in [6] was above 100 µM each time. Further, the TGI in assay [7] and in [9] was above 100 µM each time.

In the case of `CN1CCN(C(=O)COc2ccc(/C=C3\CC4C5CC=C6CC(Cl)CCC6(C)C5CCC4(C)C3=O)cc2)CC1` (centres undefined), the GI50 in [1] was above 100 µM; in assay [2], 14.3 µM; in assay [3], above 100 µM; in assay [4], above 100 µM; in [5] it was 3.33 µM; in [6], above 100 µM. Also, the GI50 in assay [7] was 10.4 µM; in assay [9] it was above 100 µM. Further, the TGI in [1], in [2], in [3], in [4], in [5] and in assay [6] was above 100 µM each time. Further, the TGI in [7] and in [9] was above 100 µM throughout.

As for `Cn1c2c(c3ccccc31)CCN1C(=O)CCC21` (centres undefined), the TGI in assay [1], in assay [2], in assay [3], in assay [4], in assay [5] and in assay [6] was above 10 µM each time. In addition, the TGI in assay [7] and in assay [9] was above 10 µM throughout.

With `CCNC(=O)OCc1c(COC(=O)NCC)c(-c2ccc(Cl)c(Cl)c2)n2c1CCC2`, the TGI in [1] was 62.1 µM; in assay [3] it was 14.6 µM; in assay [4], 36.9 µM; in [5] it was 28.6 µM; in assay [7] it was 24.4 µM; in [8] it was 72.3 µM. In [9], this compound came in with a TGI of 26.3 µM.

Regarding `CC(=O)[C@H]1CCC/C=C/[C@@H]2C[C@H](O)C[C@H]2[C@H](O)/C=C/C(=O)O1`, the GI50 in [1] was 0.264 µM; in assay [2] it was 0.236 µM; in assay [3], 0.645 µM; in assay [4], 0.261 µM; in assay [5], 0.913 µM; in assay [6] it was 0.932 µM. In addition, the GI50 is 4.93 µM in assay [7] and 0.527 µM in [9]. Further, the TGI is 0.631 µM in assay [1]; 0.742 µM in assay [2]; above 23.3 µM in assay [3]; 0.923 µM in assay [4]; above 100 µM in [5]; above 100 µM in assay [6]. Also, the figures for the TGI in assay [7] and in [9] were above 100 µM and 5.58 µM, respectively.

On to `Cc1cc(C)c(-c2c(N)cc(Br)cc2Br)c(N)c1`, for which the GI50 in [1] was 4.93 µM; in [2], 3.16 µM; in [3], 3.83 µM; in assay [4] it was 6.25 µM; in [5], 4.73 µM; in [6], 5.15 µM. The GI50 in assay [7] was 2.77 µM; in [9], 4.89 µM. The TGI stood at 15.6 µM in assay [1]; 8.78 µM in assay [2]; 19.1 µM in assay [3]; 21 µM in assay [4]; 17 µM in assay [5]; 26.3 µM in assay [6]. Further, the results for the TGI in assay [7] and in [9] were 9.4 µM and 18 µM, respectively.

Take `CSc1nc2c(c(=O)n1C)CN(C1CCCCC1)C(=O)C(c1ccccc1)N2` (centres undefined): the GI50 in [1] was 30.9 µM; in [2], 49.5 µM; in [3], 26.9 µM; in assay [4] it was 17.1 µM; in [5] it was 41.4 µM; in [6], 38.8 µM. Besides, the GI50 in assay [7] is 14.3 µM; in assay [9] it was 51.2 µM. For the same compound, the TGI in assay [1] was above 100 µM; in assay [2], above 100 µM; in [3], above 100 µM; in [4] it was 83.3 µM; in assay [5], above 100 µM; in assay [6], above 100 µM. In addition, the TGI in assay [7] is 91.4 µM; in assay [9] it was above 100 µM.

On to `CC(=O)NNc1nc(C)c(C(/C=C/c2ccccc2O)=N/N=C(N)N)s1`, for which the TGI in [1], in assay [2], in assay [3], in assay [4], in assay [5] and in assay [6] was above 100 µM each time. The TGI in assay [7] and in [9] was above 100 µM throughout.

Regarding `Cc1cn(Cc2ccc(C34CC5CC(CC(C5)C3)C4)c(O)c2)c(=O)[nH]c1=O`, the GI50 was 16.4 µM in [1]; 1.82 µM in [2]; 10.1 µM in [3]; 6.78 µM in [4]; 11.9 µM in assay [5]; 8.21 µM in assay [6]. Moreover, the GI50 was 14.4 µM in assay [7] and 8.11 µM in [9]. In addition, the TGI in assay [1] is 32.2 µM; in [2], 7.2 µM; in assay [3] it was 23.3 µM; in [4] it was 23.7 µM; in [5], 24.8 µM; in [6], 29.1 µM. The TGI came to 29.5 µM in assay [7] and 20.7 µM in [9].

`CC1=CC(C)(C)NN1C1=NS(=O)(=O)c2ccccc2N1C`: the TGI in assay [1], in [2], in [3], in assay [4], in assay [5] and in assay [6] was above 100 µM throughout. In addition, the TGI in [7] and in assay [9] was above 100 µM throughout.

Regarding `CC(C)COc1nc2c(c(=O)n(C)c(=O)n2C)n1C`, the GI50 is above 100 µM in [1]; above 100 µM in assay [2]; 18.2 µM in assay [3]; above 100 µM in assay [4]; above 100 µM in assay [5]; above 100 µM in assay [6]. In addition, the GI50 in [7] and in assay [9] was above 100 µM in each case. Also, the TGI in assay [1], in [2], in assay [3], in assay [4], in [5] and in [6] was above 100 µM each time. In addition, the TGI in assay [7] and in [9] was above 100 µM throughout.

With `O=C(NCC1CCCO1)c1ccc(NC2=C(Cl)C(=O)N(Cc3ccccc3)C2=O)cc1` (centres undefined), the GI50 was 23 µM in [1]; 20.6 µM in assay [2]; 1.79 µM in assay [3]; 18.6 µM in [4]; 18.6 µM in assay [5]; 20.4 µM in [6]. The GI50 in assay [7] was 6.4 µM; in assay [9], 17.2 µM. The TGI in assay [1] was 71.9 µM; in assay [2], 50.8 µM; in assay [3] it was 3.34 µM; in assay [4], 41.1 µM; in [5] it was 40.7 µM; in [6] it was 37 µM. Also, the TGI in assay [7] turned out to be 21.5 µM; in assay [9] it was 34.3 µM.
